Earlier results, collected in patent US8962847B2, “Multicomponent crystals made of ([2-amino-6-(4-fluoro-benzylamino)-pyridin-3-yl]-carbamic acid ethyl ester and an arylpropionic acid” (TEVA GmbH, priority 2010, dated 2015).
Counter-ions that a name gives are not always drawn. Like-named read-outs stand apart in the source and are kept apart here.

Legend:
[1] = test system: pain, fever, inflammation; conditions: in vivo
[2] = test system: antinociceptive (pain perception inhibiting) activity; conditions: mice, flupirtine maleate 15 mg per kg with various dosages of NSAIDS
[3] = test system: antinociceptive (pain perception inhibiting) activity; conditions: rat, flupirtine maleate 35 mg per kg with various dosages of NSAIDS

Row | SMILES | beginning of action compared with the racemic mixture of ibuprofen [1] | effect on the antinociceptive activity of paracetamol, acetyl salicylic acid, and diclofenac [2] | effect on the antinociceptive activity of paracetamol, acetyl salicylic acid, and diclofenac [3]
1 | CC(C)Cc1ccc([C@H](C)C(=O)O)cc1 [dexibuprofen, (+)-(2S)-2-[4-(2-methylpropyl)-phenyl]propanoic acid] | somewhat faster | – | –
2 | CCOC(=O)Nc1ccc(NCc2ccc(F)cc2)nc1N [flupirtine maleate] | – | enhances | enhances
